According to ChEMBL document CHEMBL2057065, “The 3-Deoxy Analogue of α-GalCer: Disclosing the Role of the 4-Hydroxyl Group for CD1d-Mediated NKT Cell Activation” (ACS Med Chem Lett, 2011):
Activity calls are given as the source filed them.

Tests used:
[1] = tested on: Splenocyte; assay: Immunostimulatory activity in mouse splenocytes assessed as IL4 production at 8 ng/ml after 72 hrs by ELISA; type: functional, cell-based
[2] = organism: Mus musculus; assay: Immunostimulatory activity in mouse DN32.D3 NKT hybridoma cells assessed as IL-2 production after 16 hrs by ELISA; type: functional
[3] = tested on: Splenocyte; assay: Immunostimulatory activity in mouse splenocytes assessed as IFNgamma production at 8 ng/ml after 72 hrs by ELISA; type: functional, cell-based

Measured: Activity

CCCCCCCCCCCCCCCCCCCCCCCCCC(=O)N[C@@H](CO[C@H]1O[C@H](CO)[C@H](O)[C@H](O)[C@H]1O)C[C@H](O)CCCCCCCCCCCCCC
active: all assays above

CCCCCCCCCCCCCCCCCCCCCCCCCC(=O)N[C@@H](CO[C@H]1O[C@H](CO)[C@H](O)[C@H](O)[C@H]1O)[C@H](O)[C@H](O)CCCCCCCCCCCCCC
active: all assays above

CCCCCCCCCCCCCCCCCCCCCCCCCC(=O)N[C@@H](CO[C@H]1O[C@H](CO)[C@H](O)[C@H](O)[C@H]1O)[C@H](O)CCCCCCCCCCCCCCC
active: all assays above
